Patent US20130287807A1, “COMPOUNDS FOR TREATING SYMPTOMS ASSOCIATED WITH PARKINSON'S DISEASE” (priority 2008, published 2013)
Square brackets hold non-standard residues; d marks the D form. Ends that are not written are not given here. pGlu = O=C1CC[C@@H](C(=O)O)N1

Assays:
[1] = tested on: p4371; test: Mimotope vaccination, serum ELISA against p4371; format: in vivo, C57/B16 mice; settings: peptide-KLH vaccines with alum; FIG. 16
Description: (§1) Inhibiting as well as non-inhibiting peptides were coupled to KLH and injected into mice (wildtype C57/B16 mice; subcutaneous injection into the flank) together with an appropriate adjuvant (aluminium hydroxide). Animals were vaccinated 3-6 times in biweekly intervals and sera were taken biweekly as well. Titers to injected peptides, as well as to an irrelevant peptide were determined with every serum. Furthermore, titers against the recombinant human Aβ protein, and against original peptides were determined respectively. In general sera were analysed by reaction against peptides coupled to Bovine Serum Albumin (BSA) and recombinant full length proteins which were immobilised on ELISA plates. Titers were determined using anti mouse IgG specific antibodies. For detailed results see FIGS. 15, 16 and 17 respectively and FIGS. 23, 24 and 25 respectively.
(§2) Female C57/b16 mice, 5-6 mice per group, were subcutaneously immunized with 30 μg peptide coupled to KLH. Control groups were administered original epitope-KLH conjugates respectively. As adjuvant alum was used (always 1 mg per mouse). […] The in vitro ELISA assay to determine the antibody titer was performed with sera of single mice after each vaccination in a two week interval (see FIGS. 15 and 16 respectively). The wells of the ELISA plate were coated with mimotope-BSA conjugate and an irrelevant peptide-BSA conjugate (negative control). […]

[2] = tested on: p4373; test: Mimotope vaccination, serum ELISA against p4373; format: in vivo, C57/B16 mice; settings: peptide-KLH vaccines with alum; FIG. 16
Description: as §1, §2

[3] = target: monoclonal antibody MV-003; test: inhibition ELISA, competitor coated original epitope p4373; code 2 = strong inhibition (as original epitope)
[4] = target: monoclonal antibody MV-003; test: ELISA on peptide-BSA; code 3 = strong binding, OD halfmax 1:>60000

Molecule: p(E)FRHDS-C ([pGlu]FRHDSC) [p4373, non-mimotope peptide, pyroglutamate-modified aa3-8 of Aβ]
- immune response / titers against p4371 [1]: mount relevant titers

Molecule: EFRHDS-C (EFRHDSC) [p4371]
- immune response / titers against p4373 [2]: mount relevant titers

B1: p4728 (peptide)
peptide: IRWDTSLC
- OD at 10 ug peptide relative to OD of original peptide (inhibition ELISA) [3]: < 5 fold
- dilution factor of the parental antibody at OD halfmax (1:X) (dilutionfactor(1:x)) [4]: > 60000
